For data set [1], the target named is T1, Nuclear factor erythroid 2-related factor 2 (Homo sapiens) (UniProt Q16236).
T1 sequence (whole entry): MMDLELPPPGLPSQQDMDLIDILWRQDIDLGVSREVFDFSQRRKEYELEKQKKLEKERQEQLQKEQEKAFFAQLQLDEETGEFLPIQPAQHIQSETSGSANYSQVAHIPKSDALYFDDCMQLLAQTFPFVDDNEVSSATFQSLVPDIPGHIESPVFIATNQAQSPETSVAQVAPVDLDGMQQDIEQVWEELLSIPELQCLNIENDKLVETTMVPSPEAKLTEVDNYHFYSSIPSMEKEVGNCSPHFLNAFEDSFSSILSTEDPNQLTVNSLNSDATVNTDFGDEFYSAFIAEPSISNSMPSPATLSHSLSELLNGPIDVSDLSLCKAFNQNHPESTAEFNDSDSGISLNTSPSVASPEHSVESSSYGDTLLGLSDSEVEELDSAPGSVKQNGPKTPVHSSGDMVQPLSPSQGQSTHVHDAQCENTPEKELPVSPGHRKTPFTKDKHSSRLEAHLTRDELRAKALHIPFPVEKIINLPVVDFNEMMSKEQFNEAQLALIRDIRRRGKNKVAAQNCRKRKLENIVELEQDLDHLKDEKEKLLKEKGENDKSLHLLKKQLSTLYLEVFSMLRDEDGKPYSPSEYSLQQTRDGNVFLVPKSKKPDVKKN
Conditions: Arec32, time 24.0 hrs.

A short description of another data set: in vitro. Conditions: PAMPA, pH 7.4. For orientation: In PAMPA a lipid-coated filter parts donor from acceptor wells.
The subject of the next data set is SH-SY5Y. Description: (§1) Cytotoxicity against human SH-SY5Y cells assessed as cell viability at 100 uM incubated for 24 hrs by MTT assay. Format: toxicity, cell-based. The conditions noted are these: sh-sy5y, 24 h, 100 µM.
Data set [2] can be described thus: as §1. Format: toxicity, cell-based. Conditions: SH-SY5Y cells, read-out: Activity.
The test system of data set [3] is Hippocampal neurone. Kind of data set: Induction of neurogenesis in C57BL/6 mouse assessed as increase in cell migration distance by confocal microscopic analysis. Format: functional, cell-based.
Data set [4] concerns Hippocampal neurone. Kind of data set: Induction of neurogenesis in C57BL/6 mouse hippocampus neurospheres assessed as upregulation of TuJ-1 by confocal microscopic analysis. Format: functional, cell-based.
In data set [5] the test system is Hippocampal neurone. Description: Induction of neurogenesis in C57BL/6 mouse hippocampus neurospheres assessed as upregulation of MAP-2 by confocal microscopic analysis. The format is functional, cell-based.
Data set [6] addresses T2, Amine oxidase [flavin-containing] B (Homo sapiens, UniProt P27338).
T2 sequence (P27338 whole entry): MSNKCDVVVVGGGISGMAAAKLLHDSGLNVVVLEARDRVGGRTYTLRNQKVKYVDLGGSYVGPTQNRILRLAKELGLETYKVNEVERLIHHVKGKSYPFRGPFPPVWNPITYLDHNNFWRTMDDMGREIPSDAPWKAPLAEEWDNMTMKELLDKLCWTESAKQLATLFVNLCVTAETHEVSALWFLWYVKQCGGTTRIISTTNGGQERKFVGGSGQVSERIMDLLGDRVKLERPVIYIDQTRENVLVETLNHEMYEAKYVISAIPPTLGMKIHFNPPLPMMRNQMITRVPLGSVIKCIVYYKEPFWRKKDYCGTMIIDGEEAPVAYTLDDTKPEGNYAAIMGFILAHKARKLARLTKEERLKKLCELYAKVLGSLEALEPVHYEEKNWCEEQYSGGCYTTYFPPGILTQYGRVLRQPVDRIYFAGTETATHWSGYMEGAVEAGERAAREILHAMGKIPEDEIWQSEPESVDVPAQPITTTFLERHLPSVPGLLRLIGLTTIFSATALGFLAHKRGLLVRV
Kind of data set: Inhibition of human recombinant MAO-B at 15 microM preincubated upto 30 mins using tyramine as substrate by fluorescence assay relative to control. The conditions noted are these: TDE = time-dependent effect.

A short description of data set [7]: GSH reactivity in presence glutathione-S-transferas by HPLC-MS analysis. Format: physicochemical.
In data set [8] the test system is Hippocampus. Kind of data set: Neuroprotective activity in okadaic acid-induced toxicity in C57BL/6J mouse hippocampus slice assessed as cell viability at 1 uM measured after 6 hrs by MTT assay. Format: functional, tissue-based.
Data set [9] has as its system Hippocampus. Description: Neuroprotective activity in okadaic acid-induced toxicity in C57BL/6J mouse hippocampus slice assessed cell death at 1 uM after 6 hrs by propidium iodide staining. The format is functional, tissue-based.
Data set [10] relates to Hippocampus. Description: Neuroprotective activity in okadaic acid-induced toxicity in C57BL/6J mouse hippocampus slice assessed reduction in ROS level at 1 uM after 6 hrs by H2DCFDA probe based fluorescence analysis. Format: functional, tissue-based.
Data set [11] has as its system Hippocampus. Description: Down regulation of okadaic acid-induced inducible nitric oxide synthase expression in C57BL/6J mouse hippocampus slice at 1 uM by Western blotting analysis. The format is functional, tissue-based.
Data set [12] has as its system Hippocampus. Description: Down regulation of okadaic acid induced p65 expression in C57BL/6J mouse hippocampus slice at 1 uM by Western blotting analysis. The format is functional, tissue-based. A general note: Immunoblotting shows a protein as a band on a membrane.
The test system of data set [13] is Hippocampus. Description: Down regulation of okadaic acid induced HO-1 expression in C57BL/6J mouse hippocampus slice at 1 uM by Western blotting analysis. Format: functional, tissue-based.
Data set [14] addresses T2, Amine oxidase [flavin-containing] B. Kind of data set: Inhibition of human recombinant MAO-B at 2 microM preincubated upto 30 mins using tyramine as substrate by fluorescence assay relative to control. Conditions: TDE = time-dependent effect.

Activity calls are given as the source filed them. No cut-off for these calls is given here. Where only a bound is given, the exact number is not on record here.

As usually defined, the Papp is the rate of passage across a membrane or cell layer, normalised by area and donor concentration. Higher therefore signals fast passage.

Description for in vitro: Permeability of compound in PBS buffer at pH 7.4 by PAMPA-BBB assay

In turn, `O=c1[nH]nc(/C=C/c2cc(O)cc(O)c2)o1` returned a CD in data set [1] above 60 µM. Also, the Papp in the data set “in vitro” was at most 0.1 ×10⁻⁶ cm/s.
For the molecule `C#CCNC/C=C/c1ccc(O)c(OC)c1`, the Activity result in the data set on SH-SY5Y is recorded as “Non-Toxic”.
As for `Oc1ccc(/C=C/c2cc(O)cc(O)c2)cc1` [RESVERATROL], the viability at 24 h, 100 µM in data set [2] worked out at 50%.
Consider `O=c1[nH]nc(/C=C/c2cccc(O)c2)o1`, for which the result in the data set on Hippocampal neurone [3], in the data set on Hippocampal neurone [4] and in the data set on Hippocampal neurone [5] was Active. In addition, in data set [1], the CD is above 60 µM. This molecule also returned a Papp in “in vitro” of at most 0.5 ×10⁻⁶ cm/s.
`C#CCn1nc(/C=C/c2ccc(OC)cc2)oc1=O`: the outcome in the data set with Hippocampal neurone [3], in the data set with Hippocampal neurone [4], in the data set on Hippocampal neurone [5], with Hippocampus [8], with Hippocampus [9] and in the data set with Hippocampus [10] was Active. In addition, the outcome in the data set on Hippocampus [11] and in the data set on Hippocampus [12] was Active. The Activity result in data set [6] was “Tde”; in the data set with SH-SY5Y, “Non-Toxic”; in [7] it was “Not Active”. The outcome in the data set on Hippocampus [13] was inactive.
Take `COc1cccc(/C=C/c2n[nH]c(=O)o2)c1`: the result with Hippocampal neurone [3], in the data set with Hippocampal neurone [4] and in the data set on Hippocampal neurone [5] was Active. Further, the CD in data set [1] was above 60 µM.
As to `C#CCn1nc(/C=C/c2cccc(OC)c2)oc1=O`, the result in the data set on Hippocampal neurone [3], in the data set with Hippocampal neurone [4] and in the data set on Hippocampal neurone [5] was Active. Besides, in the data set with SH-SY5Y, the Activity result is “Non-Toxic”.
With `O=c1[nH]nc(/C=C/c2ccc(O)cc2)o1`, the Activity entry with SH-SY5Y was “Non-Toxic”. In “in vitro”, this molecule showed a Papp of at most 0.7 ×10⁻⁶ cm/s.
`C#CCNC(=O)/C=C/c1cccc(C#N)c1` yielded a CD in [1] above 60 µM.
Regarding `C#CCn1nc(/C=C/c2ccccc2)oc1=O`, in [2], the viability at 24 h, 100 µM was found to be 30%.
`C#CCNC(=O)/C=C/c1ccc(O)c(OC)c1` showed a CD in data set [1] above 60 µM. In the data set “in vitro”, this molecule registered a Papp of at most 0.5 ×10⁻⁶ cm/s.
For the molecule `C#CCNC(=O)/C=C/c1ccc(O)c(O)c1`, in the data set on SH-SY5Y, the Activity entry is on record as “Non-Toxic”. In addition, the Papp in “in vitro” was at most 0.4 ×10⁻⁶ cm/s.
Regarding `COc1ccc(/C=C/c2n[nH]c(=O)o2)cc1`, the CD in [1] was above 60 µM.
In the data set “in vitro”, `COc1cc(/C=C/c2n[nH]c(=O)o2)cc(OC)c1OC` gave a Papp of at most 0.5 ×10⁻⁶ cm/s.
For `O=c1[nH]nc(/C=C/c2cccc([N+](=O)[O-])c2)o1`, the outcome in the data set on Hippocampal neurone [3], in the data set with Hippocampal neurone [4] and in the data set on Hippocampal neurone [5] was Active. In addition, the Activity result in data set [14] is “Tde”.
Turning to `C#CCNC(=O)/C=C/c1ccc(O)cc1`, in [1], the CD was above 60 µM.
In data set [1], `O=c1[nH]nc(/C=C/c2ccc3c(c2)OCO3)o1` displayed a CD above 60 µM.
The molecule `COc1ccc(/C=C/c2n[nH]c(=O)o2)cc1OC` yielded a CD in data set [1] above 60 µM.
Consider `O=c1[nH]nc(/C=C/c2ccc(O)c(O)c2)o1`, for which, in the data set with SH-SY5Y, the Activity result was “Non-Toxic”.

The values above are taken from ChEMBL document CHEMBL5046292, “Resveratrol-Based MTDLs to Stimulate Defensive and Regenerative Pathways and Block Early Events in Neurodegenerative Cascades” (J Med Chem, 2022).
